Results: the NIST ThermoML archive (doi:10.1016/j.jct.2003.11.008)

Experiments:
[1] = excess molar enthalpy (molar enthalpy of mixing); xn = mol fraction of the nth substance listed; conditions: 318.15 K, 101.3 kPa, Liquid
[2] = xn = mol fraction of the nth substance listed; conditions: 318.15 K, 101.3 kPa, Liquid

CCCCCCCCCCCCCCCCC [heptadecane] + CCCCOC(C)=O
Conditions	excess molar enthalpy [kcal/mol]	excess molar volume [m3/mol]
[1], x2 = 0.0954	0.11	–
[1], x2 = 0.1878	0.201	–
[1], x2 = 0.2686	0.269	–
[1], x2 = 0.3397	0.318	–
[1], x2 = 0.4009	0.349	–
[1], x2 = 0.4599	0.371	–
[1], x2 = 0.5118	0.382	–
[1], x2 = 0.5532	0.382	–
[1], x2 = 0.5903	0.381	–
[1], x2 = 0.5962	0.381	–
[1], x2 = 0.6293	0.369	–
[1], x2 = 0.6674	0.352	–
[1], x2 = 0.7073	0.332	–
[1], x2 = 0.7491	0.304	–
[1], x2 = 0.7926	0.271	–
[1], x2 = 0.8356	0.232	–
[1], x2 = 0.8781	0.187	–
[1], x2 = 0.9208	0.133	–
[1], x2 = 0.9615	0.0716	–
[2], x2 = 0.0632	–	1.97e-07
[2], x2 = 0.104	–	3.47e-07
[2], x2 = 0.1206	–	3.85e-07
[2], x2 = 0.1949	–	5.9e-07
[2], x2 = 0.2755	–	7.8e-07
[2], x2 = 0.3444	–	9e-07
[2], x2 = 0.4115	–	9.79e-07
[2], x2 = 0.4696	–	1.048e-06
[2], x2 = 0.515	–	1.082e-06
[2], x2 = 0.5713	–	1.082e-06
[2], x2 = 0.6623	–	1.03e-06
[2], x2 = 0.7646	–	9.06e-07
[2], x2 = 0.842	–	6.95e-07
[2], x2 = 0.8976	–	5.2e-07
[2], x2 = 0.9384	–	3.47e-07
[2], x2 = 0.9717	–	1.79e-07

CCCCCCCCCCCCCCCCC [heptadecane] + CCCCCOC(C)=O
Conditions	excess molar enthalpy [kcal/mol]	excess molar volume [m3/mol]
[1], x2 = 0.0881	0.101	–
[1], x2 = 0.1856	0.188	–
[1], x2 = 0.2815	0.259	–
[1], x2 = 0.3678	0.306	–
[1], x2 = 0.4492	0.331	–
[1], x2 = 0.5202	0.339	–
[1], x2 = 0.5818	0.337	–
[1], x2 = 0.6246	0.326	–
[1], x2 = 0.6651	0.308	–
[1], x2 = 0.7105	0.285	–
[1], x2 = 0.7575	0.258	–
[1], x2 = 0.807	0.223	–
[1], x2 = 0.8571	0.18	–
[1], x2 = 0.905	0.13	–
[1], x2 = 0.9532	0.0725	–
[2], x2 = 0.1194	–	3.74e-07
[2], x2 = 0.1753	–	5.21e-07
[2], x2 = 0.2989	–	7.64e-07
[2], x2 = 0.3689	–	8.67e-07
[2], x2 = 0.421	–	9.1e-07
[2], x2 = 0.4657	–	9.43e-07
[2], x2 = 0.5081	–	9.6e-07
[2], x2 = 0.5464	–	9.64e-07
[2], x2 = 0.6072	–	9.39e-07
[2], x2 = 0.6743	–	8.96e-07
[2], x2 = 0.7316	–	8.42e-07
[2], x2 = 0.7894	–	7.23e-07
[2], x2 = 0.8384	–	6.22e-07
[2], x2 = 0.8842	–	4.84e-07
[2], x2 = 0.9288	–	3.29e-07
[2], x2 = 0.9702	–	1.42e-07

CCCCCCCCCCCCCCC [pentadecane] + CCCCCOC(C)=O
Conditions	excess molar enthalpy [kcal/mol]	excess molar volume [m3/mol]
[1], x2 = 0.0764	0.0832	–
[1], x2 = 0.1647	0.162	–
[1], x2 = 0.2553	0.227	–
[1], x2 = 0.3274	0.268	–
[1], x2 = 0.3976	0.296	–
[1], x2 = 0.4632	0.312	–
[1], x2 = 0.5222	0.317	–
[1], x2 = 0.5758	0.314	–
[1], x2 = 0.6183	0.305	–
[1], x2 = 0.6614	0.286	–
[1], x2 = 0.7069	0.264	–
[1], x2 = 0.7552	0.235	–
[1], x2 = 0.8041	0.2	–
[1], x2 = 0.856	0.158	–
[1], x2 = 0.9056	0.111	–
[1], x2 = 0.955	0.057	–
[2], x2 = 0.097	–	2.96e-07
[2], x2 = 0.1823	–	5.2e-07
[2], x2 = 0.2485	–	6.56e-07
[2], x2 = 0.3223	–	7.83e-07
[2], x2 = 0.3863	–	8.63e-07
[2], x2 = 0.4452	–	9.09e-07
[2], x2 = 0.5075	–	9.32e-07
[2], x2 = 0.5553	–	9.44e-07
[2], x2 = 0.6017	–	9.31e-07
[2], x2 = 0.6519	–	9.05e-07
[2], x2 = 0.6946	–	8.56e-07
[2], x2 = 0.7436	–	7.87e-07
[2], x2 = 0.7672	–	7.53e-07
[2], x2 = 0.8482	–	5.78e-07
[2], x2 = 0.9107	–	3.7e-07
[2], x2 = 0.9606	–	1.78e-07

CCCCCCCCCCCCC [tridecane] + COC(C)=O
Conditions	excess molar enthalpy [kcal/mol]	excess molar volume [m3/mol]
[1], x2 = 0.1268	0.197	–
[1], x2 = 0.2391	0.341	–
[1], x2 = 0.3316	0.448	–
[1], x2 = 0.4097	0.517	–
[1], x2 = 0.4693	0.553	–
[1], x2 = 0.5214	0.571	–
[1], x2 = 0.5635	0.578	–
[1], x2 = 0.5965	0.581	–
[1], x2 = 0.6319	0.574	–
[1], x2 = 0.6706	0.559	–
[1], x2 = 0.7114	0.534	–
[1], x2 = 0.7533	0.504	–
[1], x2 = 0.7939	0.461	–
[1], x2 = 0.8383	0.402	–
[1], x2 = 0.883	0.33	–
[1], x2 = 0.9274	0.242	–
[1], x2 = 0.9665	0.133	–
[2], x2 = 0.1152	–	6.95e-07
[2], x2 = 0.195	–	1.093e-06
[2], x2 = 0.2573	–	1.364e-06
[2], x2 = 0.3086	–	1.537e-06
[2], x2 = 0.357	–	1.665e-06
[2], x2 = 0.4302	–	1.838e-06
[2], x2 = 0.5045	–	1.919e-06
[2], x2 = 0.561	–	1.946e-06
[2], x2 = 0.6192	–	1.917e-06
[2], x2 = 0.666	–	1.849e-06
[2], x2 = 0.7125	–	1.753e-06
[2], x2 = 0.7495	–	1.651e-06
[2], x2 = 0.8399	–	1.288e-06
[2], x2 = 0.8997	–	9.51e-07
[2], x2 = 0.9425	–	6.18e-07
[2], x2 = 0.9745	–	2.97e-07

CCCCCOC(C)=O [pentyl ethanoate] + CCCCCCCCCCC
Conditions	excess molar enthalpy [kcal/mol]	excess molar volume [m3/mol]
[1], x1 = 0.083	0.0857	–
[1], x1 = 0.1513	0.138	–
[1], x1 = 0.225	0.185	–
[1], x1 = 0.2965	0.221	–
[1], x1 = 0.3642	0.246	–
[1], x1 = 0.4271	0.259	–
[1], x1 = 0.4836	0.264	–
[1], x1 = 0.5356	0.262	–
[1], x1 = 0.5749	0.254	–
[1], x1 = 0.6055	0.246	–
[1], x1 = 0.6529	0.23	–
[1], x1 = 0.7058	0.209	–
[1], x1 = 0.7614	0.182	–
[1], x1 = 0.8186	0.15	–
[1], x1 = 0.8782	0.108	–
[1], x1 = 0.9384	0.0617	–
[2], x1 = 0.0737	–	2.57e-07
[2], x1 = 0.1355	–	4.05e-07
[2], x1 = 0.2015	–	5.38e-07
[2], x1 = 0.2641	–	6.43e-07
[2], x1 = 0.3197	–	7.07e-07
[2], x1 = 0.3776	–	7.48e-07
[2], x1 = 0.4395	–	7.8e-07
[2], x1 = 0.4861	–	7.92e-07
[2], x1 = 0.5386	–	7.87e-07
[2], x1 = 0.5852	–	7.75e-07
[2], x1 = 0.6345	–	7.38e-07
[2], x1 = 0.6828	–	6.92e-07
[2], x1 = 0.713	–	6.43e-07
[2], x1 = 0.8089	–	4.89e-07
[2], x1 = 0.8864	–	3.26e-07
[2], x1 = 0.9483	–	1.64e-07
